Reference: ChEMBL document CHEMBL1201862, “PubChem BioAssay data set” (2004)
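Interpolation was linear, between the two tested concentrations surrounding the appropriate level; five concentrations were tested over 48 hours in 96-well plates. The concentration for 50% growth inhibition is given as GI50.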 The source made the active and inactive calls. Cut-off read from the data, not from the text of the source: active = GI50 up to about 1.1 µM and inactive = higher.

What was measured:
Test in all cases: NCI anticancer screen, dose series, 48 h
CAKI-1 = tested on: CAKI-1
COLO 205 = tested on: COLO 205
DU-145 = tested on: DU-145
EKVX = tested on: EKVX
HCC 2998 = tested on: HCC 2998
HCT-116 = tested on: HCT-116
HOP-92 = tested on: HOP-92
KM12 = tested on: KM12
M14 = tested on: M14
MDA-N = tested on: MDA-N
MOLT-4 = tested on: MOLT-4
Malme-3M = tested on: Malme-3M
NCI-H226 = tested on: NCI-H226
NCI-H23 = tested on: NCI-H23
NCI-H460 = tested on: NCI-H460
OVCAR-8 = tested on: OVCAR-8
SF-295 = tested on: SF-295
SK-MEL-28 = tested on: SK-MEL-28
SNB-19 = tested on: SNB-19
UACC-257 = tested on: UACC-257

Measured: GI50

CC1(C)OCC(C2CCC3(C)C4=CCC5C(C)(C)C(O)CCC5(C)C4CCC23C)CC(O)C1O (stereo not given)
inactive: CAKI-1 14 µM | COLO 205 22.5 µM | DU-145 14.7 µM | EKVX 14.6 µM | HCC 2998 15.5 µM | HCT-116 13.2 µM | HOP-92 16.2 µM | KM12 14.5 µM | M14 16.9 µM | MDA-N 17.9 µM | MOLT-4 14.4 µM | Malme-3M 15.6 µM | NCI-H226 17.3 µM | NCI-H23 17.8 µM | NCI-H460 17 µM | OVCAR-8 17.5 µM | SF-295 16.9 µM | SK-MEL-28 17.3 µM | SNB-19 14.8 µM | UACC-257 12.2 µM

C1=C\SS/C=C\SS/C=C\SS/C=C\SS/1
inactive: CAKI-1 30.3 µM | COLO 205 > 100 µM | DU-145 > 100 µM | EKVX > 100 µM | HCC 2998 > 100 µM | HCT-116 > 100 µM | HOP-92 75.7 µM | KM12 > 100 µM | M14 83.9 µM | MDA-N > 100 µM | MOLT-4 42.3 µM | Malme-3M 41.7 µM | NCI-H226 > 100 µM | NCI-H23 > 100 µM | NCI-H460 22.9 µM | OVCAR-8 44.8 µM | SF-295 45.3 µM | SK-MEL-28 > 100 µM | SNB-19 67.5 µM | UACC-257 78.5 µM

C[N+]1(CCC(=O)c2ccccc2)CCC2CCC(C2)C1 (stereo not given)
inactive: CAKI-1 > 100 µM | COLO 205 > 100 µM | DU-145 > 100 µM | EKVX > 100 µM | HCC 2998 > 100 µM | HCT-116 > 100 µM | HOP-92 > 100 µM | KM12 > 100 µM | M14 > 100 µM | MDA-N > 100 µM | MOLT-4 > 100 µM | Malme-3M > 100 µM | NCI-H226 > 100 µM | NCI-H23 > 100 µM | NCI-H460 > 100 µM | OVCAR-8 > 100 µM | SF-295 > 100 µM | SK-MEL-28 > 100 µM | SNB-19 > 100 µM | UACC-257 > 100 µM

O[C@H]1[C@H](O)[C@@H](Cn2nnc(-c3ccccc3)c2-c2ccccc2)OCO[C@@H]1Cn1nnc(-c2ccccc2)c1-c1ccccc1
inactive: CAKI-1 5.73 µM | COLO 205 4.99 µM | DU-145 7.4 µM | EKVX 6.47 µM | HCC 2998 2.24 µM | HCT-116 3.11 µM | HOP-92 2.83 µM | KM12 3.63 µM | M14 3.37 µM | MDA-N 3.84 µM | MOLT-4 2.7 µM | Malme-3M 9.42 µM | NCI-H226 5.9 µM | NCI-H23 5.92 µM | NCI-H460 3.67 µM | OVCAR-8 4.01 µM | SF-295 3.78 µM | SK-MEL-28 6.18 µM | SNB-19 8.89 µM | UACC-257 4.32 µM

Nn1c(=O)[nH]c2ncn(Cc3ccccc3)c2c1=O
inactive: CAKI-1 > 100 µM | COLO 205 > 100 µM | DU-145 > 100 µM | EKVX > 100 µM | HCC 2998 > 100 µM | HCT-116 > 100 µM | HOP-92 > 100 µM | KM12 > 100 µM | M14 > 100 µM | MDA-N > 100 µM | MOLT-4 > 100 µM | Malme-3M > 100 µM | NCI-H226 > 100 µM | NCI-H23 > 100 µM | NCI-H460 > 100 µM | OVCAR-8 > 100 µM | SF-295 > 100 µM | SK-MEL-28 > 100 µM | SNB-19 > 100 µM | UACC-257 > 100 µM

COCCc1c(C)c(C#N)c2n(C)c3ccccc3n2c1=O
inactive: CAKI-1 > 10 µM | COLO 205 > 10 µM | DU-145 > 10 µM | EKVX > 10 µM | HCC 2998 > 10 µM | HCT-116 > 10 µM | HOP-92 > 10 µM | KM12 > 10 µM | M14 > 10 µM | MDA-N > 10 µM | MOLT-4 > 10 µM | Malme-3M > 10 µM | NCI-H226 > 10 µM | NCI-H23 > 10 µM | NCI-H460 > 10 µM | OVCAR-8 > 10 µM | SF-295 > 10 µM | SK-MEL-28 > 10 µM | SNB-19 > 10 µM | UACC-257 > 10 µM

CCOP(=O)(OCC)C1=C(c2ccccc2)OC(N)=C(C#N)C1c1ccc(Cl)cc1 (stereo not given)
inactive: CAKI-1 > 100 µM | COLO 205 > 100 µM | DU-145 > 100 µM | EKVX > 100 µM | HCC 2998 79.3 µM | HCT-116 > 100 µM | HOP-92 > 100 µM | KM12 > 100 µM | M14 > 100 µM | MDA-N > 100 µM | MOLT-4 > 100 µM | Malme-3M > 100 µM | NCI-H226 > 100 µM | NCI-H23 > 100 µM | NCI-H460 > 100 µM | OVCAR-8 > 100 µM | SF-295 > 100 µM | SK-MEL-28 > 100 µM | SNB-19 > 100 µM | UACC-257 > 100 µM
